Experimental data reported in patent US9422277B2, “Tricyclic substituted thiadiazine dioxide compounds as BACE inhibitors, compositions and their use” (Merck Sharp & Dohme Corp., priority 2012, dated 2016).

How the values were obtained:
[1] = target: soluble human BACE1 catalytic domain (Homo sapiens (Human), UniProt P56817); test: BACE1 HTRF FRET Assay; format: biochemical; settings: Ki calculated from IC50 using the Cheng-Prusoff equation
Description: A homogeneous time-resolved FRET assay can be used to determine IC50 values for inhibitors of the soluble human BACE1 catalytic domain. This assay monitors the increase of 620 nm fluorescence that resulted from BACE1 cleavage of an APPswedish APP^swe mutant peptide FRET substrate (QSY7-[…]-Europium-amide). This substrate contains an N-terminal QSY7 moiety that serves as a quencher of the C-terminal Europium fluorophore (620 nm Em). In the absence of enzyme activity, 620 nm fluorescence is low in the assay and increased linearly over 3 hours in the presence of uninhibited BACE1 enzyme Inhibition of BACE1 cleavage of the QSY7-APP^swe-Eu substrate by inhibitors is manifested as a suppression of 620 nm fluorescence.
Reactions are initiated by addition of 10 μl of 600 nM QSY7-APP^swe-Eu substrate (200 nM final) to give a final reaction volume of 30 μl in a 384 well Nunc HTRF plate. The reactions are incubated at 30° C. for 1.5 hours. The 620 nm fluorescence is then read on a Rubystar HTRF plate reader (BMG Labtechnologies) using a 50 millisecond delay followed by a 400 millisecond acquisition time window Inhibitor IC50 values are derived from non-linear regression analysis of concentration response curves.

[2] = target: purified human autoBACE-2 (Homo sapiens (Human), UniProt Q9Y5Z0); test: BACE-2 Assay (BACE-HTRF assay); format: biochemical; settings: Ki calculated from IC50 using the Cheng-Prusoff equation; read-out: BACE2 Ki
Description: Inhibitor IC50s at purified human autoBACE-2 are determined in a time-resolved endpoint proteolysis assay that measures hydrolysis of the QSY7-[…]-Eu-amide FRET peptide substrate (BACE-HTRF assay). BACE-mediated hydrolysis of this peptide results in an increase in relative fluorescence (RFU) at 620 nm after excitation with 320 nm light Inhibitor compounds, prepared at 3× the desired final concentration in 1×BACE assay buffer (20 mM sodium acetate pH 5.0, 10% glycerol, 0.1% Brij-35) supplemented with 7.5% DMSO are pre-incubated with an equal volume of autoBACE-2 enzyme diluted in 1×BACE assay buffer (final enzyme concentration 1 nM) in black 384-well NUNC plates for 30 minutes at 30° C. […] DMSO is present at 5% final concentration in the assay. Following laser excitation of sample wells at 320 nm, the fluorescence signal at 620 nm is collected for 400 ms following a 50 μs delay on a RUBYstar HTRF plate reader (BMG Labtechnologies). Raw RFU data is normalized to maximum (1.0 nM BACE/DMSO) and minimum (no enzyme/DMSO) RFU values. IC50s are determined by nonlinear regression analysis (sigmoidal dose response, variable slope) of percent inhibition data with minimum and maximum values set to 0 and 100 percent respectively. Similar IC50s are obtained when using raw RFU data. The Ki values are calculated from the IC50 using the Cheng-Prusoff equation.

soluble human BACE1 catalytic domain, sequence (P56817 75-416): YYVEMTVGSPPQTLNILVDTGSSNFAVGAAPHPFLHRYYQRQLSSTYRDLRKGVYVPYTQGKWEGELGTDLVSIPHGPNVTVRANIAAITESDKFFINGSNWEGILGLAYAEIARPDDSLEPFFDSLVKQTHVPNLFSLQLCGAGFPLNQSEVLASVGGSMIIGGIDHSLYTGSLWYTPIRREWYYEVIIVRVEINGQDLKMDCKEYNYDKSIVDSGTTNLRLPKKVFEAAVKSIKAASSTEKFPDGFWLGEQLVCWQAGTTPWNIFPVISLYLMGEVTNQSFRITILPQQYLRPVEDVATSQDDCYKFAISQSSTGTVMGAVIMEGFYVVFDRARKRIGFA
purified human autoBACE-2, sequence (Q9Y5Z0 63-473 limits assumed): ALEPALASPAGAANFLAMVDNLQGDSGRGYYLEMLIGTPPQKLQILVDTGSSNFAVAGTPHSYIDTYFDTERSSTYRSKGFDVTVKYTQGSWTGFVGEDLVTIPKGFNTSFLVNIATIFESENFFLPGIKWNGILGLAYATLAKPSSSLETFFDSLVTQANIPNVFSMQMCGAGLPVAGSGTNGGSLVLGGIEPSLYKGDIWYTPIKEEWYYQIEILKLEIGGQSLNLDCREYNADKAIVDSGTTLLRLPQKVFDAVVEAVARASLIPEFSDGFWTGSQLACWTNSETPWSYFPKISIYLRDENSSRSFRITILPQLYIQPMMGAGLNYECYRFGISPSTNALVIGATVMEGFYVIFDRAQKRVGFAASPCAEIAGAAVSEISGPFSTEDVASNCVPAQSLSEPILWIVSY

Row | Ki [1] [nM] | Ki [2] [nM] | SMILES
1 | 50.7 | 16.8 | CN1C(=N)N[C@](C)(c2sc(-c3nnc(-c4ccc(Cl)cc4F)o3)cc2Cl)CS1(=O)=O [Example 57]
2 | 1030 | 1070 | CN1C(=N)N[C@](C)(c2sc(-c3nnc(-c4ccc(N5CCCC5=O)cc4)o3)cc2Cl)CS1(=O)=O [Example 69]
3 | 112 | 14.8 | CN1C(=N)N[C@](C)(c2sc(-c3ncc(-c4ccccc4)[nH]3)cc2Cl)CS1(=O)=O [Example 2]
4 | 2.8 | 10.9 | CN1C(=N)N[C@](C)(c2sc(-c3ccc(-c4nnco4)[nH]3)cc2Cl)CS1(=O)=O [Example 8]
5 | 2.1 | 0.69 | CN1C(=N)N[C@](C)(c2sc(-c3ccc(-c4ccccc4)[nH]3)cc2Cl)CS1(=O)=O [Example 1]
6 | 258 | 1280 | CN1C(=N)N[C@](C)(c2sc(-c3nnc(-c4ccc(-c5noc(C(F)(F)F)n5)cc4)o3)cc2Cl)CS1(=O)=O [Example 77]
7 | 45 | 172 | CN1C(=N)N[C@](C)(c2cc(-c3ccc(-c4nnco4)[nH]3)ccc2F)CS1(=O)=O [Example 11]
8 | 100 | 258 | CCCCOc1ccc(-c2nnc(-c3cc(Cl)c([C@]4(C)CS(=O)(=O)N(C)C(=N)N4)s3)o2)cc1 [Example 61]
9 | 1980 | 281 | CN1C(=N)N[C@](C)(c2sc(-c3cn(-c4ccccc4)nn3)cc2Cl)CS1(=O)=O [Example 5]
10 | 441 | 31.7 | CN1C(=N)N[C@](C)(c2sc(-c3nnc(-c4ncco4)o3)cc2Cl)CS1(=O)=O [Example 41]
11 | 9920 | 4220 | CN1C(=N)N[C@](C)(c2cc(-c3nnc(-c4cncs4)o3)ccc2F)CS1(=O)=O [Example 50]
12 | 422 | 1150 | Cc1nc2cc(-c3nnc(-c4cc(Cl)c([C@]5(C)CS(=O)(=O)N(C)C(=N)N5)s4)o3)ccc2s1 [Example 72]
13 | 87 | 11.3 | CN1C(=N)N[C@](C)(c2sc(-c3ccc(-c4nnc(C5CC5)o4)[nH]3)cc2Cl)CS1(=O)=O [Example 10]
14 | 5400 | 1660 | CN1C(=N)N[C@](C)(c2sc(-c3nnc(-c4cncnc4)o3)cc2Cl)CS1(=O)=O [Example 39]
15 | 407 | 226 | CN1C(=N)N[C@](C)(c2sc(-c3nnc(-c4cnn(C)c4)o3)cc2Cl)CS1(=O)=O [Example 45]
16 | 1240 | 802 | CN1C(=N)N[C@](C)(c2cc(-c3nnc(-c4cnco4)o3)ccc2F)CS1(=O)=O [Example 26]
17 | 8.1 | 8.24 | Cc1nnc(-c2ccc(-c3cc(Cl)c([C@]4(C)CS(=O)(=O)N(C)C(=N)N4)s3)[nH]2)o1 [Example 9]
18 | 561 | 217 | CN1C(=N)N[C@](C)(c2sc(-c3nnc(-c4cccc5ccnn45)o3)cc2Cl)CS1(=O)=O [Example 34]
19 | 180 | 1350 | CN1C(=N)N[C@](C)(c2sc(-c3nnc(-c4ccc(-n5cnnn5)cc4)o3)cc2Cl)CS1(=O)=O [Example 70]
20 | 56 | 143 | CN1C(=N)N[C@](C)(c2sc(-c3nnc(-c4ccc(OC(F)(F)F)cc4)o3)cc2Cl)CS1(=O)=O [Example 78]
21 | 205 | 533 | CC(C)Oc1ccc(-c2nnc(-c3cc(Cl)c([C@]4(C)CS(=O)(=O)N(C)C(=N)N4)s3)o2)cc1 [Example 60]
22 | 1050 | 698 | CN1C(=N)N[C@](C)(c2sc(-c3nnc(-c4cccnc4)o3)cc2Cl)CS1(=O)=O [Example 29]
23 | 1360 | 1070 | CN1C(=N)N[C@](C)(c2sc(-c3nnc(-c4ccc(C5(C#N)COC5)cc4)o3)cc2Cl)CS1(=O)=O [Example 66]
24 | 108 | 243 | CN1C(=N)N[C@](C)(c2sc(-c3nnc(-c4ccc(-c5ccon5)cc4)o3)cc2Cl)CS1(=O)=O [Example 76]
25 | 4890 | 2940 | CN1C(=N)N[C@](C)(c2sc3c(-c4coc(-c5ccc(F)cc5)n4)cccc3c2F)CS1(=O)=O [Example 82]

Row | Ki [1] [nM] | Ki [2] [nM] | SMILES
26 | 9870 | 1490 | CN1C(=N)N[C@](C)(c2cc(-c3nnc(-c4ccccc4)o3)ccc2F)CS1(=O)=O [Example 24]
27 | 964 | 1300 | CN1C(=N)N[C@](C)(c2sc(-c3nnc(-c4ccc5[nH]cnc5c4)o3)cc2Cl)CS1(=O)=O [Example 58]
28 | 164 | 303 | CN1C(=N)N[C@](C)(c2sc(-c3nnc(-c4ccc(C(F)(F)F)cn4)o3)cc2Cl)CS1(=O)=O [Example 75]
29 | 887 | 1990 | CN1C(=N)N[C@](C)(c2sc(-c3nnc(-c4ccc5c(c4)C(=O)CC5)o3)cc2Cl)CS1(=O)=O [Example 74]
30 | 943 | 144 | CN1C(=N)N[C@](C)(c2sc(-c3cc(-c4ccccc4)no3)cc2Cl)CS1(=O)=O [Example 14]
31 | 1460 | 337 | CN1C(=N)N[C@](C)(c2sc3c(-c4cnn(-c5ccccc5)c4)cccc3c2F)CS1(=O)=O [Example 81]
32 | 156 | 366 | CN1C(=N)N[C@](C)(c2sc(-c3nnc(-c4ccc(C(F)(F)F)c(F)c4)o3)cc2Cl)CS1(=O)=O [Example 65]
33 | 118 | 81.3 | CN1C(=N)N[C@](C)(c2sc(-c3nnc(-c4ccc(F)c(F)c4)o3)cc2Cl)CS1(=O)=O [Example 59]
34 | 171 | 336 | CN1C(=N)N[C@](C)(c2sc(-c3nnc(-c4ccc5scnc5c4)o3)cc2Cl)CS1(=O)=O [Example 73]
35 | 558 | 332 | CN1C(=N)N[C@](C)(c2sc(-c3nnc(-c4ccncc4)o3)cc2Cl)CS1(=O)=O [Example 28]
36 | 1520 | 712 | CN1C(=N)N[C@](C)(c2sc(-c3nnc(-c4ccnn4C)o3)cc2Cl)CS1(=O)=O [Example 47]
37 | 359 | 889 | CC(C)c1ccc(-c2nnc(-c3cc(Cl)c([C@]4(C)CS(=O)(=O)N(C)C(=N)N4)s3)o2)cc1 [Example 56]
38 | 4000 | 490 | CN1C(=N)N[C@](C)(c2cc(-c3nnc(-c4nccs4)o3)ccc2F)CS1(=O)=O [Example 49]
39 | 4940 | 737 | CN1C(=N)N[C@](C)(c2cc(-c3nnc(-c4ccon4)o3)ccc2F)CS1(=O)=O [Example 55]
40 | 260 | 96.8 | CN1C(=N)N[C@](C)(c2sc(-c3nnc(-c4cc5ccccn5n4)o3)cc2Cl)CS1(=O)=O [Example 30]
41 | 683 | 284 | CN1C(=N)N[C@](C)(c2sc(-c3nnc(-c4cnccn4)o3)cc2Cl)CS1(=O)=O [Example 27]
42 | 87 | 35 | CC1CN=C(c2ccc(-c3cc(Cl)c([C@]4(C)CS(=O)(=O)N(C)C(=N)N4)s3)[nH]2)O1 (stereo partly drawn) [Example 7]
43 | 255 | 124 | CN1C(=N)N[C@](C)(c2sc(-c3nnc(C4Cc5ccccc5C4)o3)cc2Cl)CS1(=O)=O [Example 38]
44 | 822 | 305 | CN1C(=N)N[C@](C)(c2sc(-c3nnc(-c4ccncn4)o3)cc2Cl)CS1(=O)=O [Example 43]
45 | 160 | 356 | CCCCCOc1ccc(-c2nnc(-c3cc(Cl)c([C@]4(C)CS(=O)(=O)N(C)C(=N)N4)s3)o2)cc1 [Example 64]
46 | 250 | 142 | CN1C(=N)N[C@](C)(c2sc(-c3nnc(-c4cnco4)o3)cc2Cl)CS1(=O)=O [Example 40]
47 | 2590 | 595 | CN1C(=N)N[C@](C)(c2cc(-c3nnc(-c4ccc(Cl)cc4)o3)ccc2F)CS1(=O)=O [Example 25]
48 | 9030 | 3120 | CN1C(=N)N[C@](C)(c2sc(-c3[nH]cnc3-c3ccccc3)cc2Cl)CS1(=O)=O [Example 4]
49 | 3180 | 3320 | CN1C(=N)N[C@](C)(c2sc3c(-c4cnc(-c5ccc(F)cc5)o4)cccc3c2F)CS1(=O)=O [Example 83]
50 | 402 | 44.3 | CN1C(=N)N[C@](C)(c2sc(-c3nnc(-c4nccs4)o3)cc2Cl)CS1(=O)=O [Example 32]

Row | SMILES | Ki [1] [nM] | Ki [2] [nM]
51 | CN1C(=N)N[C@](C)(c2cc(-c3cc(-c4ccccc4)on3)ccc2F)CS1(=O)=O [Example 13] | 910 | 207
